# Source: patent US9980924B2, “Topical pterostilbene compositions for use in treating UV-induced loss of barrier function in skin” (The Regents of the University of California, priority 2014, dated 2018)
# Entries after “also recorded” stand apart in the source; their conditions may differ.
# Legend:
# [1] = test system: human liver microsomes; assay: in vitro glucuronidation assay with pooled human liver microsomes; assay type: in vitro ADME; settings: 100 μg pooled human liver microsomes (n=20), 500 μM compound
# Experimental: Human liver microsomes metabolize resveratrol much faster than pterostilbene. […] HPLC chromatographs are presented depicting either parent compound or indicated glucuronide metabolite. Glucuronide metabolite peaks were confirmed by subsequent treatment with β-glucuronidase (data not shown). Detection of peaks by UV/VIS detector at 308 nm.
# Specifically, in vitro glucuronidation assays were performed as previously described in one co-inventor's work (Dellinger, R. W., et al., “Glucuronidation of PhIP and N—OH-PhIP by UDP-glucuronosyltransferase 1A10,” Carcinogenesis (2007) 28: 2412-8; Dellinger, R. W., et al., “Importance of UDP-glucuronosyltransferase 1A10 (UGT1A10) in the detoxification of polycyclic aromatic hydrocarbons: decreased glucuronidative activity of the UGT1A10139Lys isoform,” Drug Metab. Dispos. (2006) 34: 943-9; Chen, G., Dellinger, R. W., et al., “Glucuronidation of tobacco-specific nitrosamines by UGT2B10,” Drug Metab. Dispos.
# [2] = test system: SKH-1 mice; assay: UV-B-induced skin damage and loss of barrier function (redness, TEWL) in SKH-1 mice, topical treatment; assay type: in vivo; settings: topical 10 μmol/0.2 ml acetone/mouse 30 minutes before 180 mJ/cm^2 UV-B, every 2 days, 7 treatments; for prevention of UV-mediated transepidermal water loss (TEWL) / loss of barrier function: versus vehicle+UV-B
# Text: FIG. 2 depicts the manner in which pterostilbene prevents UV-B induced damage in the skin of SKH-1 mice. […] Photographs show representative mice after 4th treatment.
# FIG. 3 depicts the manner in which pterostilbene prevents UV-mediated loss of skin barrier function in SKH-1 mice after exposure to UV-B radiation as described above for FIG. 2. TEWL measurements are expressed in g/m^2·h (and labeled ‘TD Water Loss’).
# UV-B exposure. Mice were exposed to a single dose of 180mJ/cm^2 UVB radiation delivered via broadband UVB lamps (TL 40W/12 RS; Philips) emitting 290-350 nm light with a peak emission at 312 nm. The irradiance was measured using a thermopile sensor (818P-001-12; Newport Inc., Irvine, Calif.) and power meter (842-PE; Newport Inc.).
# TEWL measurement. For transepidermal water loss (TEWL) a closed measurement chamber device (VapoMeter, Delfin Technologies Ltd, Kuopio, Finland) measuring flux density (gram/m^2·h) was used applying the sensor with even and constant pressure to dorsal skin by a single operator per manufacturer's instructions.
# Statistics. All statistical analyses were performed using CRAN R, version 3.0.0, an open-source program of The R Foundation for Statistical Computing. Linear mixed-effect models were fit for each endpoint with a random effect for the mouse and fixed effects for UV exposure, treatment group, and their interaction.
# Hairless SKH-1 mice were used to evaluate the effectiveness of pterostilbene at preventing UV-mediated damage in skin. The SKH-1 model is ideally suited for this purpose and is commonly used in preclinical studies and yielded valuable results. […] To ascertain if pterostilbene could also prevent those molecular alterations, we replicated these experiments. […] For all topical treatments 200 μl total volume was applied to the back skin of the mouse. For acetone group, 200 μl of acetone was applied. […] These mice were treated every 2 days for 7 total treatments. […] 24 hrs after last treatment, mice were euthanized, skin bi-fold measurements taken and back skins collected. […] This prevention of visual skin damage by pterostilbene correlated nicely with the prevention of loss of barrier function. […] Therefore pterostilbene prevented UV-induced loss of barrier function of the skin of SKH-1 mice.
# [3] = cited from earlier work
# [4] = rats; cited from earlier work
# [5] = 125 mg orally twice a day; cited from earlier work
# [6] = test system: mouse epidermis; settings: cited from earlier work
# [7] = test system: mouse skin; settings: cited from earlier work
# [8] = humans; cited from earlier work
smiles,measurement,setting,value
"COc1cc(/C=C/c2ccc(O)cc2)cc(OC)c1 [pterostilbene, 3,5-dimethoxy-4′-hydroxy-trans-stilbene]",fraction metabolized (glucuronidated) after 2 hours,[1],20%
same,redness (sunburn) on back skin after UV-B,[2],no redness was observed on any of the 5 mice
same,prevention of UV-mediated transepidermal water loss (TEWL) / loss of barrier function,[2],prevents TEWL after UV exposure; also recorded: prevented UV-mediated TEWL
same,half life t1/2 in blood,[3],about 105 minutes
same,increased bioavailability in comparison to resveratrol,[4],5 fold
same,overall blood pressure,[5],reduction in overall blood pressure was observed
same,toxicity in patients,[5],no toxicity reported
same,COX-2 activation and TPA-induced tumor formation in mouse epidermis in vivo,[6],prevent
Oc1ccc(C=Cc2cc(O)cc(O)c2)cc1 [resveratrol],conversion to glucuronides after 2 hours (in words),[1],almost completely converted to its glucuronides
same,redness (sunburn) on back skin after UV-B,[2],"able to limit the amount of redness observed on the back, it did not prevent it"
same,prevention of UV-mediated transepidermal water loss (TEWL) / loss of barrier function,[2],did not prevent TEWL
same,prevention of UV-mediated transepidermal water loss (TEWL) / loss of barrier function,[2]; listed as Resveratrol,ineffective
same,half life t1/2 in blood,[3],about 14 minutes
same,UV-B mediated cell damage (including hyperplasia) in mouse skin,[7]; given orally or applied topically,prevents UV-B mediated cell damage (including hyperplasia)
same,UV-induced skin cancer progression,[7]; several mouse studies,block UV-induced skin cancer progression
same,bioavailability (in words),[8],poor bioavailability
